Data as given in patent US8003773B2, “Polynucleotides encoding MHC class I-restricted hTERT epitopes, analogues thereof or polyepitopes” (Institut Pasteur, priority 2005, dated 2011).

Columns and labels:
[1] = tested on: hTERT peptide-pulsed target cells; assay: Lv-hTERT immunization of HHD mice (HLA-A2.1), CTL response in chromium release assay; format: in vivo
Procedure: (§1) Immunization with TRIPLv-hTERT was performed as a single subcutaneously (at the base of the tail) injection of 1500 ng of TripLv-hTERT suspension or control vector.
(§2) 12 days later, hTERT peptide-specific T among splenocytes were detected by an ELISPOT assay (see below). Cytotoxicity assays were performed on the same immune splenocyte populations after in vitro stimulation with peptide-pulsed as described above.
(§3) Cytotoxicity assays were performed by using standard 4-5 h ^51Cr release assay as previously described (Firat et al. J Gene Med 2002; 4:38-45). Specific lysis in % was calculated by subtracting non-specific lysis observed with the control peptide. Mice were considered as responsers when specific lysis ≧10% was observed.

[2] = tested on: peptide loaded RMA-B7 target cells; assay: Peptide immunization of HLA-*B0702 transgenic mice for CTL induction, 51Cr release assay; format: in vivo; conditions: for CTL response after peptide immunization: HLA-*B0702 transgenic mice; for R/T: responder (specific lysis ≧ 10%) versus tested mice / mice tested generating specific CTL: peptide immunization; for R/T: responder (specific lysis ≧ 10%) versus tested mice: six mice per peptide
Procedure: Female HLA-*B0702 transgenic mice at 8-10 weeks of age were injected subcutaneously (s.c.) at the base of the tail with 50 μg of individual HLA-B0702 restricted hTERT peptides supplemented with 140 μg of helper peptide co-emulsified in incomplete Freund's adjuvant (Difco, Detroit, Mich.). Ten days later, spleen cells of individual mouse were re-activated in vitro with relevant peptide in six wells plate. Effector CTL cells were tested in a standard 4-5 h ^51Cr-release assay, using relevant or negative control peptide-pulsed, HLA-*B0702 transfected RMA cells (RMA-B7). Mice were considered as responders, when specific lysis ≧10% was observed.
as §3

[3] = tested on: human tumour cell lines of different origins; assay: Capacity of hTERT-specific CTLs from donors to lyse human tumour cell lines of different origins (summary); format: cell-based; conditions: CTL lines generated in vitro from healthy donors
Procedure: as §3
(§4) Human CTL from donors were obtained after in vitro re-activated PBMC for 4 weeks with hTERT peptide HLA-B0702 restricted as described previously (Hernandez et al. Proc Natl Acad Sci U.S.A. 2002; 99:12275-80). Briefly, Ficoll-purified human PBMCS were thawed and incubated (4×10^6/well) in 24-well plates in RPMI 1640, 1 mM sodium pyruvate, 100 IU/ml penicillin, 100 μg/ml streptomycin, 10 mM HEPES, 5×10^-5 M 2-mercaptoethanol supplemented with heat inactivated 10% human serum (Institut Jacques Boy, Reims, France). They were stimulated with each hTERT peptide (10 μg/ml) and recombinant human IL-7 (20 ng/ml; R&D Systems) was added.
On day 7, lymphocytes were re-activated with peptide-pulsed γ-irradiated autologous PBMCs (50 Gy). The next day, 20 IU/ml human IL-2 (Roche, Mannheim, Germany) was added to the culture. CTL lines were re-activated weekly during four cycles. For some donors, CD8^+ T cells were purified after three round cycle, using CD8 microbeads (Miltenyi Biotec, Bergisch Gladbach, Germany.) according to manufacturer's recommendations and activated once before functional test. Cytolytic assays were performed 6 days after the last re-activation against various ^51Cr-labeled targets: T2-B7 pulsed with tested hTERT peptides or irrelevant peptide, or tumor cell lines.

[4] = tested on: hTERT peptide-pulsed target cells; assay: Lv-hTERT immunization of HLA-B7 Tg mice, CTL response in chromium release assay; format: in vivo; conditions: Flap+ Lv-hTRT immunization, by restimulating peptide
Procedure: as §1, §2
Mice were considered as responsers when specific lysis ≧10% was observed.

[5] = tested on: RMA-B7 targets loaded with relevant peptides; assay: DNA immunization (hTERT) in HLA-*B0702 transgenic mice, peptide-specific CTL; format: in vivo; conditions: immunised with cDNA encoding hTERT; FIG. 2
Procedure: HLA-B7 Tg mice and one naïve mice (N) were immunized with 100 μg DNA encoding Htert. On day 14, spleen cells from each mouse were separately in vitro stimulated with different hTERT-derived peptides. Effector cells were essayed 6 days later against RMA-B7 targets loaded with relevant (▪) or control (□) peptides as described in the material and methods. Percentage of lysis at a 60/1 ratio are shown (results from two independent experiments).
The LvCMV-hTERT plasmid vector encoding the hTERT gene under the control of CMV promotor was purified on plasmid Giga kit columns under endotoxin-free conditions (Qiagen). Anesthetized HLA-*B0702 Transgenic mice were injected with said plasmid (50 μg each side) into regenerating tibialis anterior muscles. 14 days after, spleen cells of individual mouse were re-activated in vitro with peptide-pulsed (10 μg/ml), syngenic γ-irradiated (50 Gy) LPS-lymphoblast in complete medium, supplemented with 10% supernatant from Con A-activated rat spleens cells. Cytotoxicity assays were performed 6 days as described.
as §3

[6] = tested on: T2-B7 cells; assay: Induction of primary CTL responses from healthy donors' PBMC by hTERT peptides; format: cell-based, human; conditions: HLA-B0702 healthy donors, in vitro immunization; FIG. 3
Description: T-lymphocyte cells from HLA-*B0702^+ healthy donors were activated with each of the six hTERT peptide-pulsed autologous PBMC as detailed in materials and Method. After four rounds of weekly stimulation, effector cells, pulsed with relevant (▪) or control (□) peptides, were essayed for lytic activity against ^51Cr-labeled T2-B7 cells. Percentage of lysis at a 20/1 effector-target ratio is shown. Results from 8 out of 10 donors are presented (d1 to d8).
as §4
On day 7, lymphocytes were re-activated with peptide-pulsed γ-irradiated autologous PBMCs (50 Gy). The next day, 20 IU/ml human IL-2 (Roche, Mannheim, Germany) was added to the culture. CTL lines were re-activated weekly during four cycles. […]

Substance | CTL responses specific for HLA-A2.1 restricted epitopes ([1]; HHD mice immunized with Lv-hTERT) | R/T ([1]; HHD mice, Flap+ Lv-hTRT immunization, by restimulating peptide) | CTL response after peptide immunization [2] | R/T: responder (specific lysis ≧ 10%) versus tested mice [2] | tumor cell recognition by CTL lines specific for the peptide [3] | R/T [4] | mice tested generating specific CTL [2] | mice with hTERT peptide-specific CTLs induced [5] | donors with peptide-specific CTL responses [6]
p540: HLA-A2.1-restricted hTERT-derived peptide, epitope previously classified as dominant (ILAKFLHWL; UniProt O14746 540-548, looked up, fragment) | potent CTL responses | 2/6 | – | – | – | – | – | – | –
APRCRAVRSL [p4] | – | – | strong CTL response in all mice tested | 6/6 | do not lyse all the type of tested tumors | 6/8 | – | – | –
RPSLTGARRL [p351] | – | – | – | 4/6 | recognize the majority of tumor cell lines tested | 5/8 | – | – | –
MPRAPRCRA [p1] | – | – | – | 4/6 | only recognize the T1-B7 targets | 4/8 | – | – | –
RPSFLLSSL [p342] | – | – | moderate specific CTL | 3/6 | recognize only melanoma cells (LB 34 and KU 268 target) | 4/8 | 50 % of mice tested | about 15 % of mice | 20 % of donors
RPAEEATSL [p277] | – | – | moderate specific CTL | 3/6 | recognize renal cancer (293 UT) but neither melanoma nor lymphoid tumor cells | 5/8 | 50 % of mice tested | – | –
APSFRQVSCL [p68] | – | – | strong CTL response in all mice tested | 6/6 | only recognize the T1-B7 targets | 4/8 | – | – | –
